Where two headings read alike, the source gives them in different places.
Test system: Acinetobacter baumannii ATCC17961
Assay: 90% Growth Inhibitory Concentration (IC90) determination, antimicrobial susceptibility testing
Assay type: cell-based
Details: Acinetobacter baumannii, ATCC17961, 16 h, read-out: ATCC 17961 IC90
Experimental: Antimicrobial Susceptibility Testing:
90% Growth Inhibitory Concentration (IC90) Determination
The in vitro antimicrobial activity of the compounds was determined according to the following procedure:
The assay used a 10-points Iso-Sensitest broth medium to measure quantitatively the in vitro activity of the compounds against Acinetobacter baumannii ATCC17961.
Stock compounds in DMSO were serially twofold diluted (e.g. range from 50 to 0.097 μM final concentration) in 384 wells microtiter plates and inoculated with 49 μl the bacterial suspension in Iso-Sensitest medium to have a final cell concentration of ~5×10^(5) CFU/ml in a final volume/well of 50 ul/well. Microtiter plates were incubated at 35±2° C.
Bacterial cell growth was determined with the measurement of optical density at λ=600 nm each 20 minutes over a time course of 16h. Growth inhibition was calculated during the logarithmic growth of the bacterial cells with determination of the concentration inhibiting 50% (IC50) and 90% (IC90) of the growth.
Table 1 provides the 90% growth inhibitory concentrations (IC90) in micromoles per liter of the compounds of present invention obtained against the strain Acinetobacter baumannii ATCC17961.

[1] = Acinetobacter baumannii ATCC17961, Iso-Sensitest broth, growth by optical density at 600 nm over 16h, concentration inhibiting 90% of the growth

CN(C)c1ccc(-n2cc(-c3cnc(C(=O)Nc4ccc(C(=O)N5CCN(C(=O)C6CCNCC6)CC5)c(Cl)c4)n3C)c(C(F)(F)F)n2)nn1 [Example B3, N-[3-chloro-4-[4-(piperidine-4-carbonyl)piperazine-1-carbonyl]phenyl]-5-[1-[6-(dimethylamino)pyridazin-3-yl]-3-(trifluoromethyl)pyrazol-4-yl]-1-methyl-imidazole-2-carboxamide]
IC90 [1]: 480 nM

Cn1c(-c2cn(-c3ccc(N)cn3)nc2C(F)(F)F)cnc1C(=O)Nc1ccc(C(=O)N2CCN(C(=O)C3CCNCC3)CC2)c(Cl)c1 [Example C1, 5-[1-(5-Amino-2-pyridyl)-3-(trifluoromethyl)pyrazol-4-yl]-N-[3-chloro-4-[4-(piperidine-4-carbonyl)piperazine-1-carbonyl]phenyl]-1-methyl-imidazole-2-carboxamide]
IC90: 220 nM

COCCNc1ccc(-n2cc(-c3cnc(C(=O)Nc4ccc(C(=O)N5CCN(C(=O)C6CCNCC6)CC5)c(Cl)c4)n3C)c(C(F)(F)F)n2)nc1 [Example C2, N-[3-chloro-4-[4-(piperidine-4-carbonyl)piperazine-1-carbonyl]phenyl]-5-[1-[5-(2-methoxyethylamino)-2-pyridyl]-3-(trifluoromethyl)pyrazol-4-yl]-1-methyl-imidazole-2-carboxamide]
IC90 [1]: 340 nM

Cn1c(-c2cn(-c3ccc(NCCC(N)=O)cn3)nc2C(F)(F)F)cnc1C(=O)Nc1ccc(C(=O)N2CCN(C(=O)C3CCNCC3)CC2)c(Cl)c1 [Example C3, 5-[1-[5-[(3-amino-3-oxo-propyl)amino]-2-pyridyl]-3-(trifluoromethyl)pyrazol-4-yl]-N-[3-chloro-4-[4-(piperidine-4-carbonyl)piperazine-1-carbonyl]phenyl]-1-methyl-imidazole-2-carboxamide]
IC90 [1]: 1200 nM

Cn1c(-c2cn(-c3ccc(N)cn3)nc2C(F)(F)F)cnc1C(=O)Nc1ccc(C(=O)N2CCN(C(=O)C3(O)CCNCC3)CC2)c(Cl)c1 [Example C4, 5-[1-(5-amino-2-pyridyl)-3-(trifluoromethyl)pyrazol-4-yl]-N-[3-chloro-4-[4-(4-hydroxypiperidine-4-carbonyl)piperazine-1-carbonyl]phenyl]-1-methyl-imidazole-2-carboxamide]
IC90 [1]: 310 nM

COc1ccnc(-n2cc(-c3cnc(C(=O)Nc4ccc(C(=O)N5CCN(C(=O)C6CCNCC6)CC5)c(Cl)c4)n3C)c(C(F)(F)F)n2)n1 [Example C5, N-[3-chloro-4-[4-(piperidine-4-carbonyl)piperazine-1-carbonyl]phenyl]-5-[1-(4-methoxypyrimidin-2-yl)-3-(trifluoromethyl)pyrazol-4-yl]-1-methyl-imidazole-2-carboxamide]
IC90 [1]: 930 nM

COc1nccc(-n2cc(-c3cnc(C(=O)Nc4ccc(C(=O)N5CCN(C(=O)C6CCNCC6)CC5)c(Cl)c4)n3C)c(C(F)(F)F)n2)n1 [Example C6, N-[3-chloro-4-[4-(piperidine-4-carbonyl)piperazine-1-carbonyl]phenyl]-5-[1-(2-methoxypyrimidin-4-yl)-3-(trifluoromethyl)pyrazol-4-yl]-1-methyl-imidazole-2-carboxamide]
IC90 [1]: 890 nM

Cn1c(-c2cn(-c3ccc(N)cn3)nc2C(F)(F)F)cnc1C(=O)Nc1ccc(C(=O)NCC2CCN(C(=O)C3CCNCC3)CC2)c(Cl)c1 [Example C7, 5-[1-(5-amino-2-pyridyl)-3-(trifluoromethyl)pyrazol-4-yl]-N-[3-chloro-4-[[1-(piperidine-4-carbonyl)-4-piperidyl]methylcarbamoyl]phenyl]-1-methyl-imidazole-2-carboxamide]
IC90 [1]: 660 nM

Cn1c(-c2cn(-c3ccc(N)cn3)nc2C(F)(F)F)cnc1C(=O)Nc1ccc(C(=O)N2CCN(C(=O)[C@@H]3COCCN3)CC2)c(Cl)c1 [Example C8, 5-[1-(5-amino-2-pyridyl)-3-(trifluoromethyl)pyrazol-4-yl]-N-[3-chloro-4-[4-[(3S)-morpholine-3-carbonyl]piperazine-1-carbonyl]phenyl]-1-methyl-imidazole-2-carboxamide]
IC90 [1]: 820 nM

CN1CCC(C(=O)N2CCN(C(=O)c3ccc(NC(=O)c4ncc(-c5cn(-c6ccc(N)cn6)nc5C(F)F)n4C)cc3Cl)CC2)CC1 [Example C9, 5-[1-(5-amino-2-pyridyl)-3-(difluoromethyl)pyrazol-4-yl]-N-[3-chloro-4-[4-(1-methylpiperidine-4-carbonyl)piperazine-1-carbonyl]phenyl]-1-methyl-imidazole-2-carboxamide]
IC90 [1]: 420 nM

COc1nn(-c2ccc(N)cn2)cc1-c1cnc(C(=O)Nc2ccc(C(=O)N3CCN(C(=O)C4CCN(C)CC4)CC3)c(Cl)c2)n1C [Example C10, 5-[1-(5-amino-2-pyridyl)-3-methoxy-pyrazol-4-yl]-N-[3-chloro-4-[4-(1-methylpiperidine-4-carbonyl)piperazine-1-carbonyl]phenyl]-1-methyl-imidazole-2-carboxamide]
IC90 [1]: 7000 nM

CN1CCC(C(=O)N2CCN(C(=O)c3ccc(NC(=O)c4ncc(-c5cn(-c6ccc(N)cn6)nc5C#N)n4C)cc3Cl)CC2)CC1 [Example C11, 5-[1-(5-amino-2-pyridyl)-3-cyano-pyrazol-4-yl]-N-[3-chloro-4-[4-(1-methylpiperidine-4-carbonyl)piperazine-1-carbonyl]phenyl]-1-methyl-imidazole-2-carboxamide]
IC90 [1]: 2000 nM

Cc1c[nH]nc1-n1cc(-c2cnc(C(=O)Nc3ccc(C(=O)N4CCN(C(=O)C5CCN(C)CC5)CC4)c(Cl)c3)n2C)c(C(F)(F)F)n1 [Example C15, N-[3-chloro-4-[4-(1-methylpiperidine-4-carbonyl)piperazine-1-carbonyl]phenyl]-1-methyl-5-[1-(4-methyl-1H-pyrazol-3-yl)-3-(trifluoromethyl)pyrazol-4-yl]imidazole-2-carboxamide]
IC90 [1]: 910 nM

Cn1c(-c2cn(-c3ccc(N)cn3)nc2C(F)(F)F)cnc1C(=O)Nc1ccc(C(=O)N2CCN(C(=O)CN3CCC(O)C3)CC2)c(Cl)c1 (stereo not drawn) [Example C16, 5-[1-(5-amino-2-pyridyl)-3-(trifluoromethyl)pyrazol-4-yl]-N-[3-chloro-4-[4-[2-(3-hydroxypyrrolidin-1-yl)acetyl]piperazine-1-carbonyl]phenyl]-1-methyl-imidazole-2-carboxamide]
IC90 [1]: 260 nM

Cn1c(-c2cn(-c3ccc([N+](=O)[O-])cn3)nc2C(F)(F)F)cnc1C(=O)Nc1ccc(C(=O)N2CCN(C(=O)[C@H]3NCC[C@@H]3O)CC2)c(Cl)c1 [Example C17, N-[3-chloro-4-[4-[(2S,3S)-3-hydroxypyrrolidine-2-carbonyl]piperazine-1-carbonyl]phenyl]-1-methyl-5-[1-(5-nitro-2-pyridyl)-3-(trifluoromethyl)pyrazol-4-yl]imidazole-2-carboxamide]
IC90 [1]: 790 nM

CNc1ccc(-n2cc(-c3cnc(C(=O)Nc4ccc(C(=O)N5CCN(C(=O)[C@H]6NCC[C@@H]6O)CC5)c(Cl)c4)n3C)c(C(F)(F)F)n2)nc1 [Example D4, N-[3-chloro-4-[4-[(2S,3S)-3-hydroxypyrrolidine-2-carbonyl]piperazine-1-carbonyl]phenyl]-1-methyl-5-[1-[5-(methylamino)-2-pyridyl]-3-(trifluoromethyl)pyrazol-4-yl]imidazole-2-carboxamide]
IC90 [1]: 520 nM

CNc1ccc(-n2cc(-c3cnc(C(=O)Nc4ccc(C(=O)N5CCN(C(=O)CN6CCC(O)C6)CC5)c(Cl)c4)n3C)c(C(F)(F)F)n2)nc1 (stereo not drawn) [Example D5, N-[3-chloro-4-[4-[2-(3-hydroxypyrrolidin-1-yl)acetyl]piperazine-1-carbonyl]phenyl]-1-methyl-5-[1-[5-(methylamino)-2-pyridyl]-3-(trifluoromethyl)pyrazol-4-yl]imidazole-2-carboxamide]
IC90 [1]: 310 nM

CNc1ccc(-n2cc(-c3cnc(C(=O)Nc4ccc(C(=O)N5CCN(C(=O)C6CCNCC6)CC5)c(C)c4)n3C)c(C(F)(F)F)n2)nc1 [Example D6, 1-methyl-5-[1-[5-(methylamino)-2-pyridyl]-3-(trifluoromethyl)pyrazol-4-yl]-N-[3-methyl-4-[4-(piperidine-4-carbonyl)piperazine-1-carbonyl]phenyl]imidazole-2-carboxamide]
IC90 [1]: 370 nM

CNc1ccc(-n2cc(-c3cnc(C(=O)Nc4ccc(C(=O)N5CCN(C(=O)[C@@H]6C[C@@H](O)CN6)CC5)c(Cl)c4)n3C)c(C(F)(F)F)n2)nc1 [Example D7, N-[3-chloro-4-[4-[(2S,4R)-4-hydroxypyrrolidine-2-carbonyl]piperazine-1-carbonyl]phenyl]-1-methyl-5-[1-[5-(methylamino)-2-pyridyl]-3-(trifluoromethyl)pyrazol-4-yl]imidazole-2-carboxamide]
IC90 [1]: 280 nM

COCCn1cc(-n2cc(-c3cnc(C(=O)Nc4ccc(C(=O)N5CCN(C(=O)C6CCNCC6)CC5)c(Cl)c4)n3C)c(C(F)(F)F)n2)cn1 [Example E1, N-[3-chloro-4-[4-(piperidine-4-carbonyl)piperazine-1-carbonyl]phenyl]-5-[1-[1-(2-methoxyethyl)pyrazol-4-yl]-3-(trifluoromethyl)pyrazol-4-yl]-1-methyl-imidazole-2-carboxamide]
IC90: 880 nM

COCCn1ncc(-n2cc(-c3cnc(C(=O)Nc4ccc(C(=O)N5CCN(C(=O)C6CCNCC6)CC5)c(Cl)c4)n3C)c(C(F)(F)F)n2)c1C [Example E2, N-[3-chloro-4-[4-(piperidine-4-carbonyl)piperazine-1-carbonyl]phenyl]-5-[1-[1-(2-methoxyethyl)-5-methyl-pyrazol-4-yl]-3-(trifluoromethyl)pyrazol-4-yl]-1-methyl-imidazole-2-carboxamide]
IC90 [1]: 470 nM

Reference: patent publication US12679824B2 (Hoffmann-La Roche Inc., priority 2020, dated 2026)
